Values of other authors, collected in US8188047B2, “Therapeutic and cosmetic compositions for treatment of skin” (priority 2009, dated 2012).

Settings: typically

- stable up to (temperature): up to 400 °C
Compound: FC1(F)C(F)(F)C(F)(F)C2(F)C(F)(F)C(F)(F)C(F)(F)C(F)(F)C2(F)C1(F)F (stereo not shown) [perfluorodecalin]
